# Assay results published in ChEMBL document CHEMBL4393664, “2,4-Disubstituted quinazolines targeting breast cancer cells via EGFR-PI3K” (Eur J Med Chem, 2019).
# Activity calls are given as the source filed them. The rule behind the calls is not given here.
# Legend:
# MCF7 [1] = test: Cytotoxicity against human MCF7 cells assessed as reduction in cell viability after 72 hrs by MTT assay; format: functional, cell-based; conditions: MCF7, 72 h
# MDA-MB-231 [2] = test: Antiproliferative activity against human MDA-MB-231 cells assessed as reduction in cell viability up to 32 uM by MTT assay; format: functional, cell-based; conditions: TDE = time-dependent effect
# MDA-MB-231 [3] = test: Induction of apoptosis in human MDA-MB-231 cells assessed as necrotic cells at 4 uM after 48 hrs by Annexin-V-FITC/propidium iodide staining based flow cytometry (reference value: 1.21%); format: functional
# [4] = molecular target: Epidermal growth factor receptor (Homo sapiens) (UniProt P00533); test: Inhibition of EGFR in human MCF7 cells assessed as reduction in phosphorylated AKT expression after 8 hrs by Western blot analysis; format: cell-based
# Chain of Epidermal growth factor receptor (Homo sapiens) (P00533 whole entry): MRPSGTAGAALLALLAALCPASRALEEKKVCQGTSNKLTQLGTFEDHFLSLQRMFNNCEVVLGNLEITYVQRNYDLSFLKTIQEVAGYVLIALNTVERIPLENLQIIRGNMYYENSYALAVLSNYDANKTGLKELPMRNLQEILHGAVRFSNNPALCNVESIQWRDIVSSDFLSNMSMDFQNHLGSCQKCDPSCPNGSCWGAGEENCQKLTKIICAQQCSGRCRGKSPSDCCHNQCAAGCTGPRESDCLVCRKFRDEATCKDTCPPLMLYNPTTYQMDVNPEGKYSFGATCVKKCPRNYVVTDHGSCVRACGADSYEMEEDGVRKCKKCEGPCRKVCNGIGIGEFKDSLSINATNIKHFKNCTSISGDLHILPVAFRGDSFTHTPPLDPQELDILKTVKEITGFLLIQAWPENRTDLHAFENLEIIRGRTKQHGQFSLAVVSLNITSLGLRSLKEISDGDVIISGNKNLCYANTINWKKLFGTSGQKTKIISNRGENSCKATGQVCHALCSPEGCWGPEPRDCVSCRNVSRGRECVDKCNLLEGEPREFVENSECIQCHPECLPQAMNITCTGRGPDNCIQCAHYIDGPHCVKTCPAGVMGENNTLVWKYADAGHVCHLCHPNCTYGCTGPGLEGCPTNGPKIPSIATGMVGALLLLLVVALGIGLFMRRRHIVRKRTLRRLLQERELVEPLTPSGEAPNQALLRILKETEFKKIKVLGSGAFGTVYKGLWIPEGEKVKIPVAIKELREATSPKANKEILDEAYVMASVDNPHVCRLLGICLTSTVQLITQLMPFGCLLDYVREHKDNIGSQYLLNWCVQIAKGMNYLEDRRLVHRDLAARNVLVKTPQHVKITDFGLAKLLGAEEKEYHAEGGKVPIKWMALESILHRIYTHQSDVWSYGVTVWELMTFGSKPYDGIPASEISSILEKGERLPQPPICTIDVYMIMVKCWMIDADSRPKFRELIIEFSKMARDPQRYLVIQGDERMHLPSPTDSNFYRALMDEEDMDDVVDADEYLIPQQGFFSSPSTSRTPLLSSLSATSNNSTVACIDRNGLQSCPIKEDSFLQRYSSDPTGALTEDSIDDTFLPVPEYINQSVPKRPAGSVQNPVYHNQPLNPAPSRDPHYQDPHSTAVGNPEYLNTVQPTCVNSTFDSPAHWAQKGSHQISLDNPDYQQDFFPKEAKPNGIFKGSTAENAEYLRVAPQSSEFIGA
# MCF7 [5] = test: Induction of apoptosis in human MCF7 cells assessed as necrotic cells at 4 uM after 48 hrs by Annexin-V-FITC/propidium iodide staining based flow cytometry (reference value: 1.57%); format: functional
# MDA-MB-231 [6] = test: Cell cycle arrest in human MDA-MB-231 cells assessed as accumulation at S phase at 6 uM after 24 hrs by propidium iodide/RNase A staining-based flow cytometric analysis (reference value: 23.07%); format: functional
# MCF7 [7] = test: Induction of apoptosis in human MCF7 cells assessed as increase in ROS generation up to 8 uM after 48 hrs by DHE dye-based fluorescence microscopic analysis; format: functional, cell-based
# MDA-MB-231 [8] = test: Antimigratory activity against human MDA-MB-231 cells assessed as reduction in scratch healing after 72 hrs by microscopy based scratch wound assay; format: functional, cell-based
# MCF7 [9] = test: Induction of apoptosis in human MCF7 cells assessed as late apoptotic cells at 6 uM after 48 hrs by Annexin-V-FITC/propidium iodide staining based flow cytometry (reference value: 4.28%); format: functional
# MCF7 [10] = test: Induction of apoptosis in human MCF7 cells assessed as late apoptotic cells at 2 uM after 48 hrs by Annexin-V-FITC/propidium iodide staining based flow cytometry (reference value: 4.28%); format: functional
compound,measurement,setting,value
FC(F)(F)c1ccc(CSc2nc(Nc3ccc(C(F)(F)F)cc3)c3ccccc3n2)cc1,IC50,MCF7 [1],5.1 µM
same,Activity,MDA-MB-231 [2],Tde
same,Activity,MDA-MB-231 [3],3.06%
same,inhibition,[4],Dose-dependent effect
same,Activity,MCF7 [5],1.28%
same,Activity,MDA-MB-231 [6],17.32%
same,Activity,MCF7 [7],Active
same,Activity,MDA-MB-231 [8],Dose-dependent effect
same,Activity,MCF7 [9],10.6%
same,Activity,MCF7 [10],4.26%
